Experimental findings from patent US20040019018A1, “Rigid pyrrolidone modulators of pkc” (priority 2003, published 2004) are described below.

One assay concerns the target T1, δ-PKC (Homo sapiens, UniProt Q05655).
T1 construct: made in house; host or cells: Sf9 cells (baculovirus)
Nature of the assay: [3H]PDBu displacement from recombinant PKC isozyme (baculovirus). The class given is binding. As to conditions: [3H]PDBu competition. Here is the method:
(§1) These procedures are described below. […] (See the key that follows)
(§2) Analysis of [20-^3H]phorbol 12,13-dibutyrate binding to PKC. […] [^3H]PDBu (20.0 Ci/mmol) was obtained from New England Nuclear. Phosphatidylserine and bovine […] were obtained from Sigma Chemical Co. Binding was determined in an incubation volume of 250 μl, containing [^3H]PDBu, PKC, 0.05 M Tris-Cl, pH 7.4, 100 μg/ml phosphatidylserine, various concentrations of the ligand being assayed for competition of [^3H]PDBu binding, and bovine […] at 1 mg/ml. In the case of the classical PKCs (α, β, […]) CaCl2 was included at a concentration of 0.1 mM. Liposomes of phosphatidylserine were prepared as follows. The phosphatidylserine solutions were dried down from CHCl3 under a stream of N2. After addition of 0.05 M Tris-Cl, pH 7.4, liposomes were prepared by sonication for 30 sec with the microtip probe of Sonifier Cell Disrupter (Heat Systems-Ultrasonics). [^3H]PDBu was used at a concentration twice the Kd previously determined for the specific receptor. Ligands were assayed over a concentration range of 3 orders of magnitude. Ligands were diluted in 0.05 M Tris-Cl, pH 7.4 containing 1 mg/ml bovine g-globulin. If the compounds were not soluble at the highest concentration used, they were dissolved in organic solvent (CHCl3 or ethanol) and mixed with the phosphatidylserine dissolved in CHCl3. The solvent was removed under a stream of N2.
(§3) Mixed liposomes were then prepared, as described for the preparation of the liposomes of phosphatidylserine alone, by the addition of 0.05 M Tris-Cl, pH 7.4, and sonication for 30 sec with the microtip probe of a Sonifier Cell Disrupter (Heat Systems-Ultrasonics). Incubation was for 5 min at 37° C. […] After vigorous mixing, the samples were incubated for 15 min to allow precipitation of the receptor. The precipitate was recovered by centrifugation at 12,000 rpm in a Beckman microcentrifuge at 4° C. […] This value provided a measure of the concentration of unbound [^3H]PDBu. The remainder of the supernatant was removed by aspiration and blotting with absorbent tissue. The tip of the centrifuge tube was cut off and the radioactivity in the pellet measured to determine total bound [^3H]PDBu. Non-specific binding of [^3H]PDBu was measured in the presence of 30 μM non-radioactive PDBu and used to determine an apparent partition coefficient for [^3H]PDBu under these assay conditions.
(§4) Specific binding represents the difference between total binding and the non-specific binding, where the latter value was calculated from the partition coefficient and the measured free [^3H]PDBu concentration in each tube. In each experiment, triplicate determinations were performed at each concentration of competing ligand. A half-maximal inhibitory concentration of inhibitor and a Ki for the inhibitor was determined by computer fit of the data points to the equation B(I)/B(O)=(L+Kd)/(Kd+(Kd/Ki)(I)+L), where B(I) represents the amount of [^3H]PDBu specifically bound in the presence of inhibitor, B(O) represents the amount specifically bound in the absence of inhibitor, L is the concentration of [^3H]PDBu, Kd is the measured dissociation constant for [^3H]PDBu, Ki is the dissociation constant for the inhibitor, and I is the concentration of inhibitor.
(§5) Expression of PKC isozymes in baculovirus. […] After 60-72 hr, the cells were centrifuged (1000 rpm, 10 min) and washed twice with phosphate buffered saline, and the pelleted cells kept at −70° C. until used.
(§6) For purification of the individual PKC isozymes, the cell pellet was resuspended in […] of a homogenization buffer of the following composition; 20 mM Tris-Cl, pH 8.0, 5 mM EDTA, 5 mM EGTA, 0.3% (v/v) 2-mercaptoethanol, 10 mM benzamidine, 50 μg/ml phenylmethylsulfonyl fluoride, and 250 μg/ml leupeptin. The cells were disrupted in a Potter-Elvehjem homogenizer at 4° C., and the homogenate is centrifuged at 100,000×g for 60 min.

The next assay has as its target T2, β-PKC (Homo sapiens, UniProt P05771).
T2 construct: made in house; host or cells: Sf9 cells (baculovirus)
The description is as above. It counts as binding. As to conditions: [3H]PDBu competition. Here is the method: as §1, §2, §3, §4, §5, §6

T2 sequence (P05771 whole entry): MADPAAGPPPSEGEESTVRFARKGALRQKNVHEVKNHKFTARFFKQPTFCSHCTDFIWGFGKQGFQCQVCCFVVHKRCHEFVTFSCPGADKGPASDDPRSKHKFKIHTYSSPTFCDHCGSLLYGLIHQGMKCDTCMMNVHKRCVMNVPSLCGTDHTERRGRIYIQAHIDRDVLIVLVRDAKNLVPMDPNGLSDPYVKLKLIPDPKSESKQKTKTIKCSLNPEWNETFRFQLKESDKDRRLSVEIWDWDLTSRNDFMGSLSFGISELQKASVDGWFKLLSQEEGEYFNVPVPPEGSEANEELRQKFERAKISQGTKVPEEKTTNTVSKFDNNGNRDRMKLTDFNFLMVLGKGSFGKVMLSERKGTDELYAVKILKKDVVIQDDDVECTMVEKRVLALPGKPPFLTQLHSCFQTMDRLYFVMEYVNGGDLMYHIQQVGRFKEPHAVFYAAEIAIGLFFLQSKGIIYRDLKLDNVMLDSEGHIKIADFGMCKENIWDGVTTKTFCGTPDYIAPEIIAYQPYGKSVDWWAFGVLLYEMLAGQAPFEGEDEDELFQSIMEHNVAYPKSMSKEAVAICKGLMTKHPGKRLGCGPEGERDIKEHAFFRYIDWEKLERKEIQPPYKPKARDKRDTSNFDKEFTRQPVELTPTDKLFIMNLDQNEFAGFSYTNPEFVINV
T1 sequence (Q05655 whole entry): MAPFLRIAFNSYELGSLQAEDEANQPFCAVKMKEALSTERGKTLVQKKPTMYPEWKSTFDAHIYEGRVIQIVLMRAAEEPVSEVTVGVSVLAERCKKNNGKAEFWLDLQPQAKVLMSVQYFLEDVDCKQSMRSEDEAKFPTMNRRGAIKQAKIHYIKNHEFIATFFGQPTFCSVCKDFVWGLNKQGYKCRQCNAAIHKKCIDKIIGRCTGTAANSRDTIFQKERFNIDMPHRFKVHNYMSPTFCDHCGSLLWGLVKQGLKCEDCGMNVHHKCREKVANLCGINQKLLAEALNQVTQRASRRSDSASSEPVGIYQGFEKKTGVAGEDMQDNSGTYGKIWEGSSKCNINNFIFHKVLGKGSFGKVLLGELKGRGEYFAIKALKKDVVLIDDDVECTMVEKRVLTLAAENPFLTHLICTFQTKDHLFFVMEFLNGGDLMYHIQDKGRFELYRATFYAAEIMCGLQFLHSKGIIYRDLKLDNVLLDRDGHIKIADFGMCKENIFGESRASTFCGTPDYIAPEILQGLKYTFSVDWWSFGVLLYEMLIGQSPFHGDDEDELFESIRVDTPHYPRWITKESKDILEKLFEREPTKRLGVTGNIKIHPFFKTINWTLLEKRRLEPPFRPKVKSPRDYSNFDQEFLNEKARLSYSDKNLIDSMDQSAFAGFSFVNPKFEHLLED

The term Ki denotes a dissociation constant, usually derived from enzyme kinetics or from competition with a known ligand. As for `CCCCCCCCCCCC(=O)Oc1cc2c(cc1C(C)=O)[C@@H]1[C@@H](CO)NC(=O)[C@@H]1[C@]2(C)C(C)C` [Compound 4, (3S, 8S, 9S, 10S)-5-acetyl-6-dodecanoyloxyl-3-hydroxymethyl-8-isopropyl-8-methyl-3,3a,8,8a-tetrahydro-2H -2-aza-cyclopenta[a]inden-1-one], the inhibition constant Ki at δ-PKC worked out at 4.37 ± 0.214 µM; at β-PKC, 8.49 ± 3.31 µM. As to `CCCCCCCCC#Cc1ccc2c(c1)C(C)(C(C)C)C1C(=O)NC(CO)C21` [Compound 1, (3S, 8R, 9S, 10S)-6-(dec-1′-ynyl)-3-hydroxymethyl-8-isopropyl-8-methyl-3,3a,8,8a-tetrahydro-2H-2-aza-cyclopenta[a]inden-1-one], at δ-PKC, the Ki amounted to 1.63 ± 0.391 µM.

Take `CCCCCCCCCCCC(=O)Oc1ccc2c(c1)[C@](C)(C(C)C)[C@H]1C(=O)N[C@H](CO)[C@@H]21` [Compound 2, (3S, 8R, 9S, 10S)-6-dodecanoyloxyl-3-hydroxymethyl-8-isopropyl-8-methyl-3,3a,8,8a-tetrahydro-2H -2-aza-cyclopenta[a]inden-1-one]: the values for the Ki on δ-PKC and at β-PKC were 1.37 ± 0.329 µM and 0.593 ± 0.178 µM, respectively. The matching figures for `CCCCCCCCCCCC(=O)Oc1ccc2c(c1)[C@@](C)(C(C)C)[C@H]1C(=O)N[C@H](CO)[C@@H]21` [Compound 3, (3S, 8S, 9S, 10S)-6-dodecanoyloxyl-3-hydroxymethyl-8-isopropyl-8-methyl-3,3a,8,8a-tetrahydro-2H -2-aza-cyclopenta[a]inden-1-one]: 0.15 ± 0.064 µM and 1.05 ± 0.284 µM.

Regarding `CCCCCCCCCCCC(=O)Oc1cc2c(cc1Br)[C@@H]1[C@@H](CO)NC(=O)[C@@H]1[C@]2(C)C(C)C` [Compound 5, (3S, 8S, 9S, 10S)-5-bromo-6-dodecanoyloxyl-3-hydroxymethyl-8-isopropyl-8-methyl-3,3a,8,8a-tetrahydro-2H -2-aza-cyclopenta[a]inden-1-one], the values for the inhibitory constant (Ki) on δ-PKC and at β-PKC were 0.623 ± 0.318 µM and 1.61 ± 0.257 µM, respectively. For `CCCCCCCCCCCC(=O)Oc1cc2c(cc1C(C)=O)[C@@H]1[C@@H](CO)NC(=O)[C@@H]1[C@@]2(C)C(C)C` [Compound 11, (3S, 8R, 9S, 10S)-5-acetyl-6-dodecanoyloxyl-3-hydroxymethyl-8-isopropyl-8-methyl-3,3a,8,8a-tetrahydro-2H -2-aza-cyclopenta[a]inden-1-one], on β-PKC, the Ki was greater than 10 µM.
